Assay results from PubChem BioAssay (NCI).
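Where inhibition never reached the appropriate level, the endpoint shown equals the highest concentration tested. Otherwise, values were interpolated linearly from a five-concentration, 48-hour dose response in 96-well plates. TGI is the concentration that stops growth completely.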

Assays:
Test in all cases: inhibition of tumour cell growth, NCI panel, 48 h
[1] = tested on: BT-549 breast
[2] = tested on: NCI/ADR-RES ovarian
[3] = tested on: OVCAR-8 ovarian
[4] = tested on: A498 renal
[5] = tested on: COLO 205 colon
[6] = tested on: T-47D breast
[7] = tested on: PC-3 prostate
[8] = tested on: HS 578T breast
[9] = tested on: IGROV1 ovarian
[10] = tested on: HCT-116 colon
[11] = tested on: SR leukemia
[12] = tested on: SNB-19 CNS
[13] = tested on: M19-MEL melanoma
[14] = tested on: DMS 114 small cell lung
[15] = tested on: KM20L2 colon
[16] = tested on: DLD-1 colon
[17] = tested on: A549 NSCLC
[18] = tested on: RXF-631 renal
[19] = tested on: EKVX NSCLC
[20] = tested on: DMS 273 small cell lung

Compound	TGI [1] [µM]	TGI [2] [µM]	TGI [3] [µM]	TGI [4] [µM]	TGI [5] [µM]	TGI [6] [µM]	TGI [7] [µM]	TGI [8] [µM]	TGI [9] [µM]	TGI [10] [µM]	TGI [11] [µM]	TGI [12] [µM]	TGI [13] [µM]	TGI [14] [µM]	TGI [15] [µM]	TGI [16] [µM]	TGI [17] [µM]	TGI [18] [µM]	TGI [19] [µM]	TGI [20] [µM]
COc1cc2c3c(c4cc(OC)c(OC)cc4c2cc1OC)C(=O)C1CCC(=O)N1C3 (stereo not drawn)	> 100	> 100	> 100	> 100	> 100	> 100	> 100	> 100	88.5	–	–	–	–	–	–	–	–	–	–	–
O=C(CC(=O)c1ccccc1)CC(O)(c1ccccc1)c1ccccc1	–	–	20.5	25.1	24.6	–	–	–	–	16.6	> 100	35.3	13.9	5.73	19.5	26.6	–	–	–	–
COC(=O)CN(C)P(=O)(N1CC1)N1CC1	–	–	> 100	–	> 100	–	–	–	> 100	–	–	> 100	–	> 100	> 100	> 100	> 100	> 100	> 100	> 100
CC(=O)OC1(C#N)CC2OC1C1C2N=NN1C(=O)OC(C)(C)C (stereo not drawn)	–	–	> 100	–	> 100	–	–	–	> 100	28.6	> 100	–	> 100	65.6	> 100	> 100	> 100	> 100	> 100	73.8
